Here are results for two compounds from patent US7148013B2, “Complex of Hepatitis B virus polymerase with p11 and method for controlling movement of the complex in HepG2 cell” (Korea Institute of Science and Technology, priority 2002, dated 2006).

In the experiment the test system is HBVPol/p11 complex. The experiment can be described thus: Immunofluorescent experiment and confocal microscopy: intracellular location of HBVPol/p11 complex in HepG2 cells co-delivered with HBVPol and p11. It counts as cell-based, human. As to conditions: HepG2 cell co-delivered with HBVPol and p11. How it is done: HepG2 was grown on a chamber slide charged with DMEM (supplemented with 0.1 mM non-essential amino acids and 10% FBS, culturing condition: 37° C., moisturized with a mixture of 95:5% (v/v) air and CO2), and Effectene (Qiagen) was used to deliver genes into the cell. Cells treated with EGTA and to which the gene was delivered, were washed with PBS and fixed with 100% methanol at −20° C. for 15 minutes. The slide was treated with a blocking solution (1% goat serum/PBS) at room temperature for 30 minutes and then reacted with anti-Myc rabbit (1:200) antibody against p11, anti-Flag rabbit (1:200) antibody against HBVPol, or anti-PML mouse (1:200) antibody at 4° C. for one day.
After reaction, the cells were reacted with anti-rabbit or anti-mouse goat secondary antibody, to which rhodamine or fluorscein isothiocyanate was attached, at 37° C. and then a coverslip was attached thereto with mounting solution. […]

`O=C(O)CN(CCOCCOCCN(CC(=O)O)CC(=O)O)CC(=O)O` [EGTA]: the “intracellular location of HBVPol and p11” value (0.5 mM for 48 hours, FIG. 5a) is “most of HBVPol and p11 migrated into the nucleus of the cell”.
Turning to `CC(C)[C@@H]1NC(=O)[C@H](C)OC(=O)[C@@H](C(C)C)NC(=O)[C@@H](C(C)C)OC(=O)[C@H](C(C)C)NC(=O)[C@H](C)OC(=O)[C@@H](C(C)C)NC(=O)[C@@H](C(C)C)OC(=O)[C@H](C(C)C)NC(=O)[C@H](C)OC(=O)[C@@H](C(C)C)NC(=O)[C@@H](C(C)C)OC1=O` [valinomycine], where the note is “30 uM for 24 hours, FIG. 5b”, the “intracellular location of HBVPol and p11” value was “HBVPol and p11 remained in the cytoplasm of the cell”.
